Results taken from patent publication US9775843B2, “Treatment and/or prophylaxis of TSPO mediated diseases and/or disorders” (GRÜNENTHAL GMBH, priority 2012, dated 2017).

target: T1, rat peripheral BZD receptor (Rattus norvegicus, UniProt P16257); experiment: radioligand binding test, [3H]PK 11195, rat heart membranes; details: 10 μM test compound; 0.2 nM [3H]PK 11195; rat heart membrane homogenates; 15 min at 22° C.
T1 construct: rat heart membranes and [3H]PK 11195; from tissue; host or cells: rat heart membrane homogenates
Description: Evaluation of the in vitro affinity of test substances for the rat peripheral BZD receptor was performed according to Le Fur et al. (1983). Life Sci., 33: 449-457. For this purpose, rat heart membranes and [3H]PK 11195 (1-(2-chlorophenyl)-N-methyl-N-(1-methylpropyl)-3-isoquinolinecarboxamide) were used in a radioligand binding test system.
In detail, membrane homogenates of heart (20 μg protein) are incubated for 15 min at 22° C. with 0.2 nM [3H]PK 11195 in the absence or presence of the test compound in a buffer containing 50 mM Tris-HCl (pH 7.4) and 10 mM MgCl2 (96-well plate format). Compound addition is 100× solution in solvent. Nonspecific binding is determined in the presence of 10 μM PK 11195. Following incubation, the samples are filtered rapidly under vacuum through glass fiber filters (GF/B, Packard) presoaked with 0.3% PEI and rinsed several times with ice-cold 50 mM Tris-HCl using a 96-sample cell harvester (Unifilter, Packard). The filters are dried, then counted for radioactivity in a scintillation counter (Topcount, Packard) using a scintillation cocktail (Microscint 0, Packard). The results are expressed as a percent inhibition of the control radioligand specific binding.
The standard reference compound is PK 11195, which is tested in each experiment concurrently with the test compounds.
For analysis, the specific ligand binding to the receptors is defined as the difference between the total binding and the nonspecific binding determined in the presence of an excess of unlabelled ligand. The results are expressed as a percent of control specific binding ((measured specific binding/control specific binding)×100) obtained in the presence of the test compounds.

Question: Which inhibition at 10 µM does the source give for `Cc1c(C(=O)NCc2cccc(F)c2)c(C(C)C)nc2cc(C(F)(F)F)ccc12` [compound 1, N-[(3-Fluorophenyl)-methyl]-2-isopropyl-4-methyl-7-(trifluoromethyl)-quinoline-3-carboxylic acid amide] here?
Answer: 87%

Question: How did the inhibition at 10 µM turn out when `CCSc1nc(N2CCOCC2)cc(C)c1C(=O)NCCCC(C)(C)C` [compound 2, N-(4,4-Dimethyl-pentyl)-2-ethylsulfanyl-4-methyl-6-morpholin-4-yl-pyridine-3-carboxylic acid amide] was run?
Answer: 43%

Question: For `CCSc1nc(N2CCOCC2)cc(C)c1C(=O)NCc1ccc(Cl)cc1` [compound 3, N-[(4-Chlorophenyl)-methyl]-2-ethylsulfanyl-4-methyl-6-morpholin-4-yl-pyridine-3-carboxylic acid amide], which inhibition at 10 µM is on record?
Answer: 91%

Question: Which inhibition at 10 µM does the source give for `COc1nc(N2CCOCC2)cc(C)c1C(=O)NCc1ccc(Cl)cc1` [compound 4, N-[(4-Chlorophenyl)-methyl]-2-methoxy-4-methyl-6-morpholin-4-yl-pyridine-3-carboxylic acid amide] here?
Answer: 49%

Question: Which inhibition at 10 µM does the source give for `O=C(NCc1ccc(F)cc1)c1cccnc1SCCC(F)(F)c1ccc(F)cc1` [compound 5, 2-[[3,3-Difluoro-3-(4-fluorophenyl)-propyl]sulfanyl]-N-[(4-fluorophenyl)-methyl]-pyridine-3-carboxylic acid amide] here?
Answer: 102%

Question: How did the inhibition at 10 µM turn out when `O=C(NCC1CC2CCC1C2)c1cccnc1SCCC(F)(F)c1ccc(F)cc1` (stereo not drawn) [compound 6, N-(5-Bicyclo[2.2.1]heptanyl-methyl)-2-[[3,3-difluoro-3-(4-fluorophenyl)-propyl]sulfanyl]-pyridine-3-carboxylic acid amide] was run?
Answer: 99%

Question: For `Cc1cc(N2CCOCC2)nc(C2CC2)c1C(=O)NCc1ccc(Cl)cc1` [compound 7, N-[(4-Chlorophenyl)-methyl]-2-cyclopropyl-4-methyl-6-morpholin-4-yl-pyridine-3-carboxylic acid amide], which inhibition at 10 µM is on record?
Answer: 57%

Question: Which inhibition at 10 µM does the source give for `COc1nc(N2CCOCC2)cc(C)c1C(=O)NCc1cccc(F)c1` [compound 8, N-[(3-Fluorophenyl)-methyl]-2-methoxy-4-methyl-6-morpholin-4-yl-pyridine-3-carboxylic acid amide] here?
Answer: 103%

Question: How did the inhibition at 10 µM turn out when `COc1nc(N2CCOCC2)cc(C)c1C(=O)NCc1ccc(F)cc1` [compound 9, N-[(4-Fluorophenyl)-methyl]-2-methoxy-4-methyl-6-morpholin-4-yl-pyridine-3-carboxylic acid amide] was run?
Answer: 53%

Question: `CCCc1nc(N2CCOCC2)cc(C)c1C(=O)NCc1cccc(F)c1` [compound 10, N-[(3-Fluorophenyl)-methyl]-4-methyl-6-morpholin-4-yl-2-propyl-pyridine-3-carboxylic acid amide] was tested. Which inhibition at 10 µM did it give?
Answer: 91%

Question: For `Cc1cc(N2CCOCC2)nc(C2CC2)c1C(=O)NCc1ccc(F)cc1` [compound 11, 2-Cyclopropyl-N-[(4-fluorophenyl)-methyl]-4-methyl-6-morpholin-4-yl-pyridine-3-carboxylic acid amide], which inhibition at 10 µM is on record?
Answer: 87%

Question: With `CC(C)CCNC(=O)c1cccnc1SCCC(F)(F)c1ccc(F)c(F)c1` [compound 12, 2-[[3-(3,4-Difluoro-phenyl)-3,3-difluoro-propyl]-sulfanyl]-N-(3-methyl-butyl)-pyridine-3-carboxylic acid amide] as the compound, how does the inhibition at 10 µM read?
Answer: 97%

Question: For `CCSc1nc(N2CCOCC2)cc(C)c1C(=O)NCc1cccc(F)c1` [compound 13, 2-Ethylsulfanyl-N-[(3-fluorophenyl)-methyl]-4-methyl-6-morpholin-4-yl-pyridine-3-carboxylic acid amide], which inhibition at 10 µM is on record?
Answer: 95%

Question: How did the inhibition at 10 µM turn out when `Cc1cc(N2CCOCC2)nc(C2CC2)c1C(=O)NCc1cccc(F)c1` [compound 15, 2-Cyclopropyl-N-[(3-fluorophenyl)-methyl]-4-methyl-6-morpholin-4-yl-pyridine-3-carboxylic acid amide] was run?
Answer: 90%

Question: With `CC(C)CCNC(=O)c1cccnc1SCCC(F)(F)c1ccc(F)cc1` [compound 16, 2-[[3,3-Difluoro-3-(4-fluorophenyl)-propyl]sulfanyl]-N-(3-methyl-butyl)-pyridine-3-carboxylic acid amide] as the compound, how does the inhibition at 10 µM read?
Answer: 96%
